Format in all cases: cell-based
The subject of assay [1] is LTC4 release by human monocytes. As to the kind of experiment: Assay (f): stimulated eicosanoid release by human monocytes, LTC4. The note with it: Monocyte, 0.25 h, A23187 1 μM, 15 min. As to the method:
(§1) Human Monocyte Isolation. Leukocyte-rich leukopaks obtained from Biological Specialties (Lansdale, Pa.) were collected from male volunteers who were not taking antiinflammatory drugs. Leukopaks were centrifuged (90×g for 15 min) twice to remove the platelet-rich plasma. The cell pellet was washed by centrifugation and resuspended in HBSS without Ca^2+ or Mg^2+. Histopaque 1077 was layered under the cell suspension and centrifuged at 400×g for 30 min to obtain the buffy coat. The interfacial buffy coat, containing monocytes and lymphocytes, was removed and saved. The buffy coat was washed twice with HBSS Without Ca^2+ or Mg^2+ by centrifugation. The cell pellet (4-6×10^8 cells/30 mls) was resuspended in iso-osmotic media (RPMI-1640, 10% heat inactivated fetal bovine serum (FBS), 0.2 mM L-glutamine, 2.5 mM HEPES) and layered over an equal volume of 46% Percol mixture (10X PBS/Percol; 9.25/0.75) and 54% iso-osmotic media and centrifuged for 30 min at 1000×g (Marshall and Roshak, Biochem. Cell Biol. 71: 331-339, 1993). The monocyte population located at the interface of the Percoll gradient was removed and washed twice in HBSS without Ca^2+ or Mg^2+.
(§2) Measurement of Stimuli-Induced Eicosanoid Release Monocytes (5×10^6 /ml) were incubated as a suspension in serum-free RPMI-1640 medium containing the vehicle DMSO (<1%) or drug for 30 min at 27° C. after which vehicle or stimuli was added for the indicated time. The stimulating agent is solubilized in DMSO and appropriate vehicle controls were included in all experiments. The amount of stimuli was chosen from the linear portion of a concentration versus product curve usually representing 60-80% maximal stimulation over the indicated incubation time at 37° C. (A23187, 1 μM,(15 min). The reaction was terminated by reduction of pH through addition of citric acid and centrifugation (10 min, 400×g, 4° C.). Cell viability was monitored before and after experiments using trypan blue exclusion. The cell-free media was decanted and stored at -70° C. until analyzed. Prostaglandin E2 and LTC4 were directly measured in cell-free media using enzyme immunoassay (EIA) kits purchased from Caymen Chemical Co. (Ann Arbor, Mich.). Sample or standard dilutions were made with appropriate media and analyzed in triplicate. Results were obtained by extrapolation from a standard curve prepared in the media and expressed as pg or ng/ml of sample.

In assay [2] the test system is PGE2 release by human monocytes. In words: Assay (f): stimulated eicosanoid release by human monocytes, Prostaglandin E2. The following applies: Monocyte, 0.25 h, A23187 1 μM, 15 min. As to the method:
as §1, §2

In assay [3] the test system is human neutrophils. As to the kind of experiment: Assay (e): mobilization of labeled arachidonic acid into 1-ether phospholipids in intact cells. The note with it: non-stimulated human neutrophils, 2 hrs. On the procedure:
Measurement of the effect of CoA-IT inhibitors on the transfer of [^3 H]arachidonate into 1-ether phospholipids in non-stimulated inflammatory cells can be accomplished by general application of the following specific method. Human neutrophils were isolated and resuspended (5×10^7 /ml) in Hanks Balanced Salt Solution (HBSS; Gibco). [5,6,8,9,11,12,14,15-^3 H]-Arachidonic acid (100 Ci/mmol; New England Nuclear) complexed to 200 μl HBSS containing 0.25 mg/ml HSA was added to the cell suspension (1 μCi/ml). The cells were incubated with gentle shaking at 37° C. for 5 min. The reaction was terminated by the addition of 40 ml ice-cold HBSS containing HSA (0.25 mg/ml). The cells were then removed from the supernatant fluid by centrifugation (225 g, 8 min). Unincorporated [^3 H]-arachidonic acid was completely removed by two more washes of HBSS containing 0.25 mg/mi HSA. The neutrophils were resuspended in fresh buffer, exposed to various concentrations of a CoA-IT inhibitor or its vehicle and incubated without stimulation for 2 hrs. […] The phospholipid subclasses were separated by TLC in benzene/hexane/ethyl ether (50:45:4, v/v), located by image analysis (Bioscan) and the amount of radioactivity in each class was determined by zonal scraping and liquid scintillation counting.

Regarding `O=C(O)c1ccccc1Oc1ccc(C(F)(F)F)cc1NS(=O)(=O)c1cc(C(F)(F)F)cc(C(F)(F)F)c1` [Example 1, 2-[2-[3,5-Bis(trifluoromethyl)phenylsulfonamido]-4-trifluoromethylphenoxy]benzoic acid], the figures for the concentration for half-maximal inhibition (IC50) in assay [1] and in assay [2] were 300 nM and more than 30000 nM, respectively. In addition, the “blocking the movement of arachidonic acid into 1-ether phospholipids” value in assay [3] is reported as “positive activity”.

In general, IC50 refers to the concentration that inhibits the measured activity by half. High values mean weaker potency, low ones greater potency.

The values are drawn from US5545669A, “Anti-inflammatory compounds” (priority 1994, dated 1996).
